As a reminder, the melting point is the temperature of the solid-liquid transition.

Counter-ions that a name gives are not always drawn.

Experimental findings from patent publication US6936610B2, “Heterocyclic derivatives” (AstraZeneca UK Limited, priority 1996, dated 2005) are described below.

Compound `O=C(c1ccc(-c2ccnnc2)cc1)N1CCN(S(=O)(=O)c2ccc3cc(Br)ccc3c2)CC1` [Example 9, 1-(6-bromonaphth-2-ylsulphonyl)4-[4-(4-pyridazinyl)benzoyl]piperazine] gave a melting point of 128 to 130 °C. `O=C(c1ccc(-c2ccncc2)cc1)N1CCN(S(=O)(=O)c2ccc3cc(Cl)ccc3c2)CC1` (as salt: trifluoroacetate) [Example 7, 1-(6-chloronaphth-2-ylsulphonyl)4-[4-(4-pyridyl)benzoyl]piperazine] showed a melting point of 175 to 176 °C. `Cc1cc(-c2ccc(C(=O)N3CCN(S(=O)(=O)c4ccc5cc(Br)ccc5c4)CC3)cc2)ccn1` [Example 8, 1-(6-bromonaphth-2-ylsulphonyl)-4-[4-(2-methyl-4-pyridyl)benzoyl]piperazine] yielded a melting point of 204 to 205 °C.
